Results on one compound are retold here after patent US10174156B2, “Hyperbranched polyester with a hydrophobic nucleus for solubilizing poorly soluble active substances” (BASF SE, priority 2009, dated 2019).

SMILES strings stand for the structures. Bounds are passed on as bounds.

This series is described as follows: physchem. Particulars: pH 7, aqueous buffer, thermodynamic from solid.

Protocol: 2 g of polymer were weighed into a 50 ml beaker. Subsequently, 0.2 g of active ingredient in each case was weighed into the mixture in order to obtain an oversaturated solution. […] The mixture was then stirred at room temperature with the aid of a magnetic stirrer for 72 h. After a rest time of 1 h, excess (i.e. unsolubilized) active ingredient was removed by filtration. The clear or opaque solution thus obtained was subsequently analyzed for its active ingredient content by means of UV spectroscopy or HPLC.

As for `Clc1ccccc1C(c1ccccc1)(c1ccccc1)n1ccnc1` [Clotrimazole], the solubility at 72 h is less than 100 µg/mL.
